Entries after “also recorded” stand apart in the source; their conditions may differ.
How the values were obtained:
[1] = test system: dermal microvascular endothelial cells (H-DMVEC); test: Proliferation assay of dermal microvascular endothelial cells with bFGF; format: cell-based, human; conditions: 10 μM; 5 days; bFGF 10 ng/ml
From the text: After 5 days of culture, cells were counted by trypan blue dye exclusion, as described above. Data from duplicate experiments are expressed as the number of […] grown in response to bFGF in the presence of indinavir, saquinavir or HIV-PI-resuspension buffer.

smooth muscle cells = test: Cell growth assay of smooth muscle cells in response to bFGF; format: cell-based, human
From the text: Assays have been essentially performed as described in key to FIGS. 1 and 3. […] Data of duplicate experiments (mean) are shown.

[2] = test system: bFGF-induced angiogenic KS-like lesions; test: bFGF-induced angiogenic KS-like lesions in nude mice; format: in vivo; conditions: for No. of mice with macroscopic vascular lesions/No. of inoculated mice / mice with macroscopic vascular lesions (%): bFGF 1 μg in matrigel, indinavir 1.4 mg/day or saquinavir 1 mg/day, intragastric gavage, 7 days; for Tissue staining (area % ± SD) CD31 / Tissue staining (area % ± SD) FVIII-RA: bFGF 1 μg, lesional area stained
Procedure: The mice were then inoculated with bFGF (1 μg) or with its diluting buffer in the presence of matrigel (Kleiner et al., 1993; Ensoli et al., 1994a; Samaniego et al., 1998; Barillari et al., 1999a).
The mice were then sacrificed and the inoculation areas examined both macroscopically and microscopically for the presence of KS-like angioproliferative lesions (Kleiner et al., 1993; Ensoli et al., 1994a; Samaniego et al., 1998; Barillari et al., 1999a).
At the time of sacrifice, the inoculation sites were examined to check for the presence of macroscopic angioproliferative lesions and analyzed microscopically after haematoxilin & eosin (H&E) staining or frozen for histochemical analysis of endothelial the cell markers FVIII-RA and CD31. Here are listed the number (No.) of mice that developed lesions with respect to the number (No.) of mice inoculated, and the percentage (%) of mice that developed lesions. […] Angiogenesis was quantitated by determining the tissue area stained for FVIII-RA or CD31. Shown are the percentages [mean±standard deviations (SD)] of lesional area stained for FVIII-RA or CD31 that were quantitated as described below.
These doses correspond, respectively, to the whole dose, double or half the dose of HIV-PI used daily in patients infected with HIV (Deeks et al., 1997). […] The control animals were treated with the same volume of saline solution. On the third day the mice were inoculated subcutaneously at the level of the lower dorsal quadrant with 1 μg of recombinant bFGF (Roche, Mannheim, Germany) diluted in 0.2 ml of phosphate buffer (PBS)-0.1% bovine […] albumin (BSA) or with its re-suspending buffer, mixed with 0.2 ml of Matrigel (Collaborative Biomedical Products, Bedford, Mass.) prior to inoculation, as described previously (Ensoli et al., 1994a). Four days later the mice were sacrificed, the inoculation sites were examined to check for the presence of macroscopic KS-like angioproliferative lesions, and sections of tissue histologically examined after staining with H&E. For immunohistochemical analysis, frozen tissue sections were fixed with cold acetone and stained with rabbit anti-human FVIII-RA polyclonal antibodies (Ab) (Dako, Glostrup, Denmark; 1:2000 dilution) or anti-mouse CD31 rat monoclonal Ab (BD Biosciences; 1:1000 dilution). Digital images (200× magnification) were captured by a color CCD camera (Zeiss) and analyzed by acquiring 4-9 microscopic fields (about 0.15 mm^2 per field) corresponding to the whole histologic sections. Staining was quantitated by the KS300 (Zeiss) image analysis software and expressed as the percentage of positive area over the total tissue area.

[3] = test system: breast carcinoma (MDA-MB468) cells; test: Invasion assay of MDA-MB468 cells in response to bFGF; format: cell-based, human; conditions: 0.1, 1 or 10 μM
Procedure: Shown is the result of a representative invasion assay performed on the breast carcinoma cells MDA-MB468. […] The invasion assays were performed in the Boyden chamber. Polycarbonate filters ([…]; Nucleoprobe, Cabin John, Md.) were coated first with collagen IV and then with Matrigel (Collaborative Biomedical Products) as described previously (Barillari et al., 1999b). […] Human recombinant bFGF (50 ng/ml) was placed in the lower compartment as chemoattractant. […] Louis, Mo.). Ten random filter fields were counted by light microscopy as described previously (Barillari et al., 1999b). Assays were repeated two times.

[4] = test system: lung carcinoma (A549) cells; test: Lesions induced by A549 cells in nude mice; format: in vivo; conditions: 5×10^6 cells/site; daily treatment
Procedure: The treatment with HIV-PI or saline solution continued until sacrifice. The size of the lesions present at the injection site was evaluated daily by caliper measurement. External lesion area was then calculated as the product of the two major lesion diameters. The mean size (cm^2) of the lesions present at the injection site is shown.
To determine whether HIV-PI could inhibit the growth of malignant solid and lymphoid tumours, nude mice were inoculated with hepato-carcinoma cells (SK-Hep-1), lung carcinoma cells (A549), breast adeno-carcinoma cells (MDA-MB-468), myelo-monocytic leukaemia cells (U937), and T lymhocytic leukaemia cells (Jurkat).

VEGF = VEGF production by KS cells (ELISA); format: cell-based, human; conditions: 0.1, 1 and 10 μM; 5 days + 24 hours
Procedure: (§1) After 24 hours of incubation, the supernatants of the cultures were tested by ELISA (R & D Systems, Minneapolis, Minn., USA) to determine the quantity of IL-6 present in the medium. The quantity of IL-6 is expressed in pg/ml of supernatant. The same tests were carried out for bFGF, VEGF, IL-1α and IL-1β by means of commercial ELISA kits.
(§2) KS cells secrete cytokines with an inflammatory, oedemigenic, angiogenic and proliferative activity with autocrine and paracrine effects (Ensoli and Stürzl, 1998). These factors mediate all the processes required for KS-like lesions formation (angiogenesis, cellular proliferation and invasion, inflammatory Infiltration, oedema) and vascular permeability and oedema induced by KS cells in nude mice. […] The quantity of bFGF, VEGF, IL-1 and IL-6 was dosed with immuno-enzymatic trials in the supernatants of the KS cells after 24 hours of culture in the absence of serum and in the continuous presence of the two HIV-PI (ELISA). […] Furthermore IL-6 plays a key role in the multicentric Cstleman's diseases and in the growth of lymphomas (Tosato et al., 1993; Peterson and Frizzera, 1993; Asou et al., 1998; Ramsay et al., 1994), another type of tumour whose incidence is reduced in patients treated with HIV-PI (International Collaboration on HIV and Cancer 2000).

IL-1α = IL-1α production by KS cells (ELISA); format: cell-based, human; conditions: 0.1, 1 and 10 μM, 5 days + 24 hours
Procedure: as §1, §2

IL-6 = IL-6 production by KS cells (ELISA); format: cell-based, human; conditions: 0.1, 1 and 10 μM, 5 days + 24 hours
Procedure: as §1, §2

Row | SMILES | proliferation in response to bFGF [1] | proliferation in response to bFGF (smooth muscle cells) | No. of mice with macroscopic vascular lesions/No. of inoculated mice [2] | mice with macroscopic vascular lesions (%) [2] [%] | Tissue staining (area % ± SD) CD31 [2] [%] | Tissue staining (area % ± SD) FVIII-RA [2] [%] | invasive capacity in response to bFGF [3] | development of lesions (lesion size) [4] | production of VEGF by KS cells (VEGF) | production of IL-1α by KS cells (IL-1α) | production of IL-6 by KS cells (IL-6) | angiogenesis and infiltration of the cells, microscopic examination of the inoculation sites ([2]; in comparison with mice inoculated with bFGF and not treated) | production of IL-1α by KS cells (IL-1α; listed as indinavir) | production of IL-6 by KS cells (IL-6; listed as indinavir)
1 | CC(C)(C)NC(=O)[C@@H]1C[C@@H]2CCCC[C@@H]2CN1C[C@@H](O)[C@H](Cc1ccccc1)NC(=O)[C@H](CC(N)=O)NC(=O)c1ccc2ccccc2n1 [Saquinavir, saquinavir] | do not interfere | do not interfere | 7/28 | 25 | 0.83 ± 0.3 | 1.13 ± 0.6 | inhibit | inhibit | reduced | reduced; also recorded: inhibited | reduced; also recorded: inhibited |  |  | 
2 | CC(C)(C)NC(=O)[C@@H]1CN(Cc2cccnc2)CCN1C[C@@H](O)C[C@@H](Cc1ccccc1)C(=O)N[C@H]1c2ccccc2C[C@H]1O [Indinavir, indinavir] | do not interfere | do not interfere | 8/28 | 28 | 1.00 ± 0.6 | 1.32 ± 1.2 | inhibit | inhibit | reduced | inhibited | inhibited | marked reduction | reduced | reduced

— US20060088545A1, “Use of inhibitors of the protease of the human immunodeficiency virus (hiv) to block cell migration and/or invasion, tissue infiltration and oedema for the therary of diseases associated therewith” (priority 2001, published 2006)
